Measurements from US12456194B2, “Methods for identifying and using cell behavior in drug screening and diagnosis” (Indiana University Research and Technology Corporation, priority 2020, dated 2025).

Tests used:
[1] = test system: B16F10 melanoma cell line; assay: 3D tumor culture T cell infiltration drug screen scored by neural network, B16F10; settings: B16F10 melanoma cell line-based screen; library of 141 small molecule epigenetic modulators; averaging the scores of a total of 10 images; FIG. 6
Protocol: (§1) Once the predicted Rd is determined, the predicted Rd for each patient can be classified as depicted in Step 215 of FIG. 2. For example, Rd can be defined as high, medium, and low-survival groups by binning the Rd's by or into risk classifications or categories, such as low survival, medium survival and high survival. Low survival may mean the Rd>75% of TCGA SKCM patient dataset; medium survival may mean Rd=25%-75% of TCGA SKCM patient dataset; and high survival may mean Rd<25% of TCGA SKCM patient dataset. Each risk classification or category may be associated with a predetermined values, such as 0 for low survival (high risk), 1 for medium survival (medium risk), and 2 for high survival (low risk).
(§2) The trained neural network as described in FIG. 1 and FIG. 4 is transferred to 3D tumor culture dataset 305, a drug screening method and/or a companion diagnostic method 300 may be performing using the algorithms discussed above with respect to FIGS. 1, 2 and 4 to objectively quantify and predict/score the effectiveness of a drug or a treatment based on a particular type of TIL behavior within 3D tumor cultures or patent tumor tissue samples. For example, a library of 141 small molecule epigenetic modulators in 2 cancer cell lines (e.g., B16F10 melanoma and UN-KC6141 pancreatic cancer) were screened. […]

[2] = test system: UN-KC6141 pancreatic cancer cell line; assay: 3D tumor culture T cell infiltration drug screen scored by neural network, UN-KC6141; settings: UN-KC6141 pancreatic cancer cell line-based screen; library of 141 small molecule epigenetic modulators; averaging the scores of a total of 10 images; FIG. 6
Protocol: as §1, §2

Question: Which results are given for c1ccc([C@@H]2C[C@H]2NC2CCNCC2)cc1 [GSK-LSD1]?
Answer: final score (T cell infiltration enhancement activity) [1]: highest score; final score (T cell infiltration enhancement activity) [2]: highest score
